Source: ChEMBL document CHEMBL3600303, “The N-Terminal T-T Motif of a Third-Generation HIV-1 Fusion Inhibitor Is Not Required for Binding Affinity and Antiviral Activity” (J Med Chem, 2015)
Activity calls are given as the source filed them. The calls are words filed in the database; no cut-off is given here.

What was measured:
[1] = test system: Human immunodeficiency virus 1; assay: Antiviral activity against ENF-resistant HIV1 NL4-3 harboring gp41 N-terminal heptad repeat V38A mutant infected in human TZM-bl cells assessed as inhibition of viral entry into cells after 48 hrs by single-cycle infection assay; format: functional, organism-based
[2] = test system: Human immunodeficiency virus 1; assay: Antiviral activity against ENF-resistant HIV1 NL4-3 harboring gp41 N-terminal heptad repeat D36S/V38M double mutant infected in human TZM-bl cells assessed as inhibition of viral entry into cells after 48 hrs by single-cycle infection assay; format: functional, organism-based
[3] = test system: Human immunodeficiency virus 1; assay: Antiviral activity against ENF-resistant HIV1 NL4-3 harboring gp41 N-terminal heptad repeat Q40H mutant infected in human TZM-bl cells assessed as inhibition of viral entry into cells after 48 hrs by single-cycle infection assay; format: functional, organism-based
[4] = test system: Human immunodeficiency virus 1; assay: Ratio of IC50 for ENF-resistant HIV1 NL4-3 harboring gp41 N-terminal heptad repeat V38A/N42T double mutant to IC50 for wild type HIV1 NL4-3; format: functional
[5] = test system: Human immunodeficiency virus 1; assay: Ratio of IC50 for ENF-resistant HIV1 NL4-3 harboring gp41 N-terminal heptad repeat Q40H mutant to IC50 for wild type HIV1 NL4-3; format: functional
[6] = test system: Human immunodeficiency virus 1; assay: Antiviral activity against ENF-resistant HIV1 NL4-3 harboring gp41 N-terminal heptad repeat I37T mutant infected in human TZM-bl cells assessed as inhibition of viral entry into cells after 48 hrs by single-cycle infection assay; format: functional, organism-based
[7] = test system: Human immunodeficiency virus 1; assay: Antiviral activity against ENF-resistant HIV1 NL4-3 harboring gp41 N-terminal heptad repeat D36G mutant infected in human TZM-bl cells assessed as inhibition of viral entry into cells after 48 hrs by single-cycle infection assay; format: functional, organism-based
[8] = test system: Human immunodeficiency virus 1; assay: Ratio of IC50 for wild type HIV1 NL4-3 to IC50 for ENF-resistant HIV1 NL4-3 harboring gp41 N-terminal heptad repeat D36G mutant; format: functional
[9] = test system: Human immunodeficiency virus 1; assay: Antiviral activity against wild type HIV1 NL4-3 infected in human TZM-bl cells assessed as inhibition of viral entry into cells after 48 hrs by single-cycle infection assay; format: functional, organism-based; details: Human immunodeficiency virus 1, NL4-3, TZM-bl
[10] = test system: Human immunodeficiency virus 1; assay: Ratio of IC50 for ENF-resistant HIV1 NL4-3 harboring gp41 N-terminal heptad repeat Q40H mutant to IC50 for ENF-resistant HIV1 NL4-3 harboring gp41 N-terminal heptad repeat D36G mutant; format: functional
[11] = test system: Human immunodeficiency virus 1; assay: Ratio of IC50 for ENF-resistant HIV1 NL4-3 harboring gp41 N-terminal heptad repeat I37T/N43K double mutant to IC50 for ENF-resistant HIV1 NL4-3 harboring gp41 N-terminal heptad repeat D36G mutant; format: functional
[12] = test system: Human immunodeficiency virus 1; assay: Antiviral activity against ENF-resistant HIV1 NL4-3 harboring gp41 N-terminal heptad repeat V38A/N42T double mutant infected in human TZM-bl cells assessed as inhibition of viral entry into cells after 48 hrs by single-cycle infection assay; format: functional, organism-based
[13] = test system: Human immunodeficiency virus 1; assay: Ratio of IC50 for ENF-resistant HIV1 NL4-3 harboring gp41 N-terminal heptad repeat N43K mutant to IC50 for ENF-resistant HIV1 NL4-3 harboring gp41 N-terminal heptad repeat D36G mutant; format: functional
[14] = test system: Human immunodeficiency virus 1; assay: Ratio of IC50 for ENF-resistant HIV1 NL4-3 harboring gp41 N-terminal heptad repeat N43K mutant to IC50 for wild type HIV1 NL4-3; format: functional
[15] = test system: Human immunodeficiency virus 1; assay: Ratio of IC50 for ENF-resistant HIV1 NL4-3 harboring gp41 N-terminal heptad repeat D36S/V38M double mutant to IC50 for wild type HIV1 NL4-3; format: functional
[16] = test system: Human immunodeficiency virus 1; assay: Ratio of IC50 for ENF-resistant HIV1 NL4-3 harboring gp41 N-terminal heptad repeat D36G mutant to IC50 for wild type HIV1 NL4-3; format: functional
[17] = test system: Human immunodeficiency virus 1; assay: Ratio of IC50 for ENF-resistant HIV1 NL4-3 harboring gp41 N-terminal heptad repeat V38M mutant to IC50 for wild type HIV1 NL4-3; format: functional
[18] = test system: Human immunodeficiency virus 1; assay: Ratio of IC50 for ENF-resistant HIV1 NL4-3 harboring gp41 N-terminal heptad repeat V38M mutant to IC50 for ENF-resistant HIV1 NL4-3 harboring gp41 N-terminal heptad repeat D36G mutant; format: functional
[19] = test system: Human immunodeficiency virus 1; assay: Antiviral activity against ENF-resistant HIV1 NL4-3 harboring gp41 N-terminal heptad repeat N43K mutant infected in human TZM-bl cells assessed as inhibition of viral entry into cells after 48 hrs by single-cycle infection assay; format: functional, organism-based
[20] = test system: Human immunodeficiency virus 1; assay: Antiviral activity against ENF-resistant HIV1 NL4-3 harboring gp41 N-terminal heptad repeat I37T/N43K double mutant infected in human TZM-bl cells assessed as inhibition of viral entry into cells after 48 hrs by single-cycle infection assay; format: functional, organism-based
[21] = test system: Human immunodeficiency virus 1; assay: Ratio of IC50 for ENF-resistant HIV1 NL4-3 harboring gp41 N-terminal heptad repeat V38A/N42T double mutant to IC50 for ENF-resistant HIV1 NL4-3 harboring gp41 N-terminal heptad repeat D36G mutant; format: functional
[22] = test system: Human immunodeficiency virus 1; assay: Ratio of IC50 for ENF-resistant HIV1 NL4-3 harboring gp41 N-terminal heptad repeat D36S/V38M double mutant to IC50 for ENF-resistant HIV1 NL4-3 harboring gp41 N-terminal heptad repeat D36G mutant; format: functional
[23] = test system: Human immunodeficiency virus 1; assay: Ratio of IC50 for ENF-resistant HIV1 NL4-3 harboring gp41 N-terminal heptad repeat I37T mutant to IC50 for wild type HIV1 NL4-3; format: functional
[24] = test system: Human immunodeficiency virus 1; assay: Antiviral activity against ENF-resistant HIV1 NL4-3 harboring gp41 N-terminal heptad repeat V38M mutant infected in human TZM-bl cells assessed as inhibition of viral entry into cells after 48 hrs by single-cycle infection assay; format: functional, organism-based
[25] = test system: Human immunodeficiency virus 1; assay: Ratio of IC50 for ENF-resistant HIV1 NL4-3 harboring gp41 N-terminal heptad repeat I37T mutant to IC50 for ENF-resistant HIV1 NL4-3 harboring gp41 N-terminal heptad repeat D36G mutant; format: functional
[26] = test system: Human immunodeficiency virus 1; assay: Ratio of IC50 for ENF-resistant HIV1 NL4-3 harboring gp41 N-terminal heptad repeat V38A mutant to IC50 for ENF-resistant HIV1 NL4-3 harboring gp41 N-terminal heptad repeat D36G mutant; format: functional
[27] = test system: Human immunodeficiency virus 1; assay: Ratio of IC50 for ENF-resistant HIV1 NL4-3 harboring gp41 N-terminal heptad repeat V38A mutant to IC50 for wild type HIV1 NL4-3; format: functional
[28] = test system: Human immunodeficiency virus 1; assay: Ratio of IC50 for ENF-resistant HIV1 NL4-3 harboring gp41 N-terminal heptad repeat I37T/N43K double mutant to IC50 for wild type HIV1 NL4-3; format: functional
[29] = test system: Human immunodeficiency virus 1; assay: Antiviral activity against HIV-1 SF162 pseudovirus infected in human TZM-bl cells assessed as inhibition of viral entry into cells after 48 hrs by single-cycle infection assay; format: functional, organism-based; details: Human immunodeficiency virus 1, SF162, TZM-bl
[30] = Thermostability of the compound in PBS assessed as melting temperature at 20 uM by CD spectroscopic analysis; format: physicochemical; details: buffer
[31] = test system: Human immunodeficiency virus 1; assay: Antiviral activity against HIV-1 ZM214M.15 pseudovirus infected in human TZM-bl cells assessed as inhibition of viral entry into cells after 48 hrs by single-cycle infection assay; format: functional, organism-based; details: Human immunodeficiency virus 1, ZM214M.15, TZM-bl
[32] = biological target: Envelope glycoprotein gp160 (Human immunodeficiency virus 1) (UniProt Q72502); assay: Binding affinity to HIV1 NL4-3 gp41 N-terminal heptad repeat I37T mutant after 30 mins by CD spectroscopic analysis
[33] = biological target: Envelope glycoprotein gp160 (Human immunodeficiency virus 1) (UniProt Q72502); assay: Binding affinity to HIV1 NL4-3 gp41 N-terminal heptad repeat I37T/N43K double mutant after 30 mins by CD spectroscopic analysis
[34] = test system: Envelope glycoprotein gp160 (Human immunodeficiency virus 1), Q72502 [V38A]; assay: Binding affinity to HIV1 NL4-3 gp41 N-terminal heptad repeat V38A mutant after 30 mins by CD spectroscopic analysis
[35] = test system: Human immunodeficiency virus 1; assay: Antiviral activity against HIV-1 SC42261.8 pseudovirus infected in human TZM-bl cells assessed as inhibition of viral entry into cells after 48 hrs by single-cycle infection assay; format: functional, organism-based; details: Human immunodeficiency virus 1, SC42261.8, TZM-bl
[36] = biological target: Envelope glycoprotein gp160 (Human immunodeficiency virus type 1 group M subtype B (isolate HXB2)(HIV-1)) (UniProt P04578); assay: Binding affinity to HIV-1 HXB2 gp41 N-terminal heptad repeat assessed as thermostability of protein-compound complex at 10 uM after 30 mins by CD spectroscopic analysis; details: Human immunodeficiency virus 1
[37] = biological target: Envelope glycoprotein gp160 (Human immunodeficiency virus 1) (UniProt Q72502); assay: Binding affinity to HIV1 NL4-3 gp41 N-terminal heptad repeat V38A/N42T double mutant after 30 mins by CD spectroscopic analysis
[38] = biological target: Envelope glycoprotein gp160 (Human immunodeficiency virus type 1 group M subtype B (isolate HXB2)(HIV-1)) (UniProt P04578); assay: Binding affinity to HIV-1 HXB2 gp41 N-terminal heptad repeat assessed as increase in 6-helix bundle thermostability at 10 uM after 30 mins by CD spectroscopic analysis; details: Human immunodeficiency virus 1
[39] = test system: Human immunodeficiency virus 1; assay: Antiviral activity against wild type HIV1 NL4-3 infected in human TZM-bl cells assessed as inhibition of viral replication after 2 days by luciferase reporter gene assay; format: functional, organism-based; details: Human immunodeficiency virus 1, NL4-3, TZM-bl, 48 h
[40] = test system: Human immunodeficiency virus 1; assay: Antiviral activity against HIV1 NL4-3 pseudovirus infected in human TZM-bl cells assessed as inhibition of viral entry into cells after 48 hrs by single-cycle infection assay; format: functional, organism-based; details: Human immunodeficiency virus 1, NL4-3, TZM-bl
[41] = biological target: Envelope glycoprotein gp160 (Human immunodeficiency virus 1) (UniProt Q72502); assay: Binding affinity to HIV1 NL4-3 gp41 N-terminal heptad repeat Q40H mutant after 30 mins by CD spectroscopic analysis
[42] = biological target: Envelope glycoprotein gp160 (Human immunodeficiency virus 1) (UniProt Q72502); assay: Binding affinity to HIV1 NL4-3 gp41 N-terminal heptad repeat G36D mutant after 30 mins by CD spectroscopic analysis
[43] = biological target: Envelope glycoprotein gp160 (Human immunodeficiency virus 1) (UniProt Q72502); assay: Binding affinity to HIV1 NL4-3 gp41 N-terminal heptad repeat N43K mutant after 30 mins by CD spectroscopic analysis
Serum = assay: Metabolic stability in Sprague-Dawley rat serum at 4 mg/kg, ip measured at 0.5 to 4 hrs post dose; format: ADME, organism-based; details: in vivo

enfuvirtide gave an IC50 [1] of 709 nM, an IC50 [2] of 240 nM and an IC50 [3] of 1450 nM. For the same substance, the “Ratio IC50” value [4] was greater than 25, the “Ratio IC50” value [5] was 16.1 and the IC50 [6] was 618 nM. For the same substance, the IC50 [7] was 9.1 nM, the “Ratio IC50” value [8] was 9.9 and the IC50 [9] was 90.2 nM. For the same substance, the “Ratio IC50” value [10] was 159.8, the “Ratio IC50” value [11] was 247.3 and the IC50 [12] was greater than 2250 nM. For the same substance, the “Ratio IC50” value [13] was 51.3, the “Ratio IC50” value [14] was 5.2 and the “Ratio IC50” value [15] was 2.7. The “Ratio IC50” value [16] was 0.1, the “Ratio IC50” value [17] was 3 and the “Ratio IC50” value [18] was 29.4. For the same substance, the IC50 [19] was 467 nM, the IC50 [20] was greater than 2250 nM and the “Ratio IC50” value [21] was 247.3. For the same substance, the “Ratio IC50” value [22] was 26.4, the “Ratio IC50” value [23] was 6.9 and the IC50 [24] was 268 nM. For the same substance, the “Ratio IC50” value [25] was 68, the “Ratio IC50” value [26] was 77.9 and the “Ratio IC50” value [27] was 7.9. For the same substance, the “Ratio IC50” value [28] was greater than 25.
With “H-MTWEAWDRAIAEYAARIEALIRAAQEQQEKNEAALREL-OH” the IC50 [29] was 4.98 nM, the Stability [30] was “Stable” and the IC50 [31] was 0.74 nM. For the same substance, the Activity [32] was “Active”, the Activity [33] was “Active” and the Activity [34] was “Active”. For the same substance, the IC50 [35] was 1.65 nM, the Tm [36] was 88.1 °C and the Activity [37] was “Active”. The Activity [38] was “Active”, the IC50 [39] was 0.25 nM and the IC50 [40] was 0.46 nM. The Activity [41] was “Active”, the Activity [42] was “Active” and the Activity [43] was “Active”. The Stability (Serum) was “Unstable”.
